Reference: ChEMBL document CHEMBL5303573, “Mapping human microbiome drug metabolism by gut bacteria and their genes” (Nature, 2019)

Tests used:
[1] = The drug is tested on Blautia hansenii strain: DSM20583 for biotransformation. The drug concentrations were measured before and after a 12-h incubation by liquid-chromatography-coupled mass spectrometry (LC–MS); conditions: 2 µM
[2] = The drug is tested on Eubacterium hallii strain: DSM3353 for biotransformation. The drug concentrations were measured before and after a 12-h incubation by liquid-chromatography-coupled mass spectrometry (LC–MS); conditions: anaerobutyricum hallii, 2 µM
[3] = The drug is tested on Bacteroides finegoldii strain: DSM17565 for biotransformation. The drug concentrations were measured before and after a 12-h incubation by liquid-chromatography-coupled mass spectrometry (LC–MS); conditions: 2 µM
[4] = The drug is tested on Bacteroides caccae strain: ATCC43185 for biotransformation. The drug concentrations were measured before and after a 12-h incubation by liquid-chromatography-coupled mass spectrometry (LC–MS); conditions: 2 µM
[5] = The drug is tested on Bacteroides fragilis strain: ATCC43859 for biotransformation. The drug concentrations were measured before and after a 12-h incubation by liquid-chromatography-coupled mass spectrometry (LC–MS); conditions: 2 µM
[6] = bacteroides thetaiotaomicron, 12 h, 2 µM
Description: The drug is tested on Bacteroides thetaiotaomicron strain: VPI-5482 for biotransformation. The drug concentrations were measured before and after a 12-h incubation by liquid-chromatography-coupled mass spectrometry (LC–MS)

[7] = The drug is tested on Clostridium ramosum strain: DSM1402 for biotransformation. The drug concentrations were measured before and after a 12-h incubation by liquid-chromatography-coupled mass spectrometry (LC–MS); conditions: thomasclavelia ramosa, 2 µM
[8] = bacteroides thetaiotaomicron, 12 h, 2 µM; remark: listed apart in the source
Description: The drug is tested on Bacteroides thetaiotaomicron strain: 7330 for biotransformation. The drug concentrations were measured before and after a 12-h incubation by liquid-chromatography-coupled mass spectrometry (LC–MS)

[9] = The drug is tested on Bifidobacterium breve strain: DSM20213 for biotransformation. The drug concentrations were measured before and after a 12-h incubation by liquid-chromatography-coupled mass spectrometry (LC–MS); conditions: 2 µM
[10] = The drug is tested on Clostridium scindens strain: ATCC35704 for biotransformation. The drug concentrations were measured before and after a 12-h incubation by liquid-chromatography-coupled mass spectrometry (LC–MS); conditions: 2 µM
[11] = enterocloster bolteae, 12 h, 2 µM
Description: The drug is tested on Clostridium bolteae strain: ATCCBAA-613 for biotransformation. The drug concentrations were measured before and after a 12-h incubation by liquid-chromatography-coupled mass spectrometry (LC–MS)

[12] = The drug is tested on Bacteroides ovatus strain: ATCC8483 for biotransformation. The drug concentrations were measured before and after a 12-h incubation by liquid-chromatography-coupled mass spectrometry (LC–MS); conditions: 2 µM
[13] = The drug is tested on Anaerococcus hydrogenalis strain: DSM7454 for biotransformation. The drug concentrations were measured before and after a 12-h incubation by liquid-chromatography-coupled mass spectrometry (LC–MS); conditions: 2 µM
[14] = The drug is tested on Clostridium symbiosum strain: ATCC14940 for biotransformation. The drug concentrations were measured before and after a 12-h incubation by liquid-chromatography-coupled mass spectrometry (LC–MS); conditions: 2 µM
[15] = The drug is tested on Eubacterium ventriosum strain: ATCC27560 for biotransformation. The drug concentrations were measured before and after a 12-h incubation by liquid-chromatography-coupled mass spectrometry (LC–MS); format: ADME; set-up: dose 2 uM, timepoint 0 vs 12 hours; conditions: 2 µM
[16] = The drug is tested on Parabacteroides merdae strain: ATCC43184 for biotransformation. The drug concentrations were measured before and after a 12-h incubation by liquid-chromatography-coupled mass spectrometry (LC–MS); conditions: 2 µM
[17] = The drug is tested on Enterococcus faecalis strain: V583 for biotransformation. The drug concentrations were measured before and after a 12-h incubation by liquid-chromatography-coupled mass spectrometry (LC–MS); conditions: 2 µM
[18] = The drug is tested on Dorea formicigenerans strain: ATCC27755 for biotransformation. The drug concentrations were measured before and after a 12-h incubation by liquid-chromatography-coupled mass spectrometry (LC–MS); conditions: 2 µM
[19] = The drug is tested on Enterobacter cancerogenus strain: ATCC35316 for biotransformation. The drug concentrations were measured before and after a 12-h incubation by liquid-chromatography-coupled mass spectrometry (LC–MS); conditions: 2 µM
[20] = The drug is tested on Bacteroides fragilis strain: HMW615 for biotransformation. The drug concentrations were measured before and after a 12-h incubation by liquid-chromatography-coupled mass spectrometry (LC–MS); conditions: 2 µM

## Br.COc1ccc2c(c1)[C@]13CCCC[C@@H]1[C@H](C2)N(C)CC3.O [DEXTROMETHORPHAN HYDROBROMIDE]
[1]
  Bacterial Biotransformation: Compound NOT metabolized
[2]
  Bacterial Biotransformation: Compound NOT metabolized
[3]
  Bacterial Biotransformation: Compound NOT metabolized
[4]
  Bacterial Biotransformation: Compound NOT metabolized
[5]
  Bacterial Biotransformation: Compound NOT metabolized
[6]
  Bacterial Biotransformation: Compound NOT metabolized
[7]
  Bacterial Biotransformation: Compound NOT metabolized
[8]
  Bacterial Biotransformation: Compound NOT metabolized
[9]
  Bacterial Biotransformation: Compound NOT metabolized
[10]
  Bacterial Biotransformation: Compound NOT metabolized
[11]
  Bacterial Biotransformation: Compound NOT metabolized
[12]
  Bacterial Biotransformation: Compound NOT metabolized
[13]
  Bacterial Biotransformation: Compound NOT metabolized
[14]
  Bacterial Biotransformation: Compound NOT metabolized
[15]
  Bacterial Biotransformation: Compound NOT metabolized
[16]
  Bacterial Biotransformation: Compound NOT metabolized
[17]
  Bacterial Biotransformation: Compound NOT metabolized
[18]
  Bacterial Biotransformation: Compound NOT metabolized
[19]
  Bacterial Biotransformation: Compound NOT metabolized

## CNCC[C@H](Oc1cccc2ccccc12)c1cccs1 [DULOXETINE]
[1]
  Bacterial Biotransformation: Compound metabolized
[20]
  Bacterial Biotransformation: Compound NOT metabolized
[3]
  Bacterial Biotransformation: Compound NOT metabolized
[4]
  Bacterial Biotransformation: Compound NOT metabolized
[5]
  Bacterial Biotransformation: Compound NOT metabolized
[6]
  Bacterial Biotransformation: Compound NOT metabolized
[7]
  Bacterial Biotransformation: Compound NOT metabolized
[9]
  Bacterial Biotransformation: Compound NOT metabolized
[10]
  Bacterial Biotransformation: Compound NOT metabolized
[11]
  Bacterial Biotransformation: Compound NOT metabolized
[12]
  Bacterial Biotransformation: Compound metabolized
[13]
  Bacterial Biotransformation: Compound NOT metabolized
[14]
  Bacterial Biotransformation: Compound NOT metabolized
[15]
  Bacterial Biotransformation: Compound NOT metabolized
[16]
  Bacterial Biotransformation: Compound metabolized
[17]
  Bacterial Biotransformation: Compound NOT metabolized
[18]
  Bacterial Biotransformation: Compound NOT metabolized
[19]
  Bacterial Biotransformation: Compound metabolized

## CN1CCN(C(=O)O[C@H]2c3nccnc3C(=O)N2c2ccc(Cl)cn2)CC1 [ESZOPICLONE]
[1]
  Bacterial Biotransformation: Compound NOT metabolized
[2]
  Bacterial Biotransformation: Compound metabolized
[20]
  Bacterial Biotransformation: Compound NOT metabolized
[4]
  Bacterial Biotransformation: Compound NOT metabolized
[5]
  Bacterial Biotransformation: Compound NOT metabolized
[6]
  Bacterial Biotransformation: Compound NOT metabolized
[7]
  Bacterial Biotransformation: Compound NOT metabolized
[8]
  Bacterial Biotransformation: Compound NOT metabolized
[9]
  Bacterial Biotransformation: Compound NOT metabolized
[10]
  Bacterial Biotransformation: Compound NOT metabolized
[11]
  Bacterial Biotransformation: Compound metabolized
[12]
  Bacterial Biotransformation: Compound NOT metabolized
[13]
  Bacterial Biotransformation: Compound NOT metabolized
[14]
  Bacterial Biotransformation: Compound NOT metabolized
[15]
  Bacterial Biotransformation: Compound NOT metabolized
[17]
  Bacterial Biotransformation: Compound NOT metabolized
[18]
  Bacterial Biotransformation: Compound NOT metabolized
[19]
  Bacterial Biotransformation: Compound NOT metabolized

## COC1=C(OC)C(=O)C(CCCCCCCCCCO)=C(C)C1=O [IDEBENONE]
[1]
  Bacterial Biotransformation: Compound NOT metabolized
[2]
  Bacterial Biotransformation: Compound metabolized
[3]
  Bacterial Biotransformation: Compound NOT metabolized
[4]
  Bacterial Biotransformation: Compound metabolized
[5]
  Bacterial Biotransformation: Compound metabolized
[6]
  Bacterial Biotransformation: Compound NOT metabolized
[7]
  Bacterial Biotransformation: Compound NOT metabolized
[8]
  Bacterial Biotransformation: Compound NOT metabolized
[9]
  Bacterial Biotransformation: Compound NOT metabolized
[10]
  Bacterial Biotransformation: Compound metabolized
[11]
  Bacterial Biotransformation: Compound metabolized
[12]
  Bacterial Biotransformation: Compound NOT metabolized
[13]
  Bacterial Biotransformation: Compound NOT metabolized
[14]
  Bacterial Biotransformation: Compound NOT metabolized
[15]
  Bacterial Biotransformation: Compound NOT metabolized
[16]
  Bacterial Biotransformation: Compound NOT metabolized
[17]
  Bacterial Biotransformation: Compound NOT metabolized
[18]
  Bacterial Biotransformation: Compound NOT metabolized
[19]
  Bacterial Biotransformation: Compound NOT metabolized

## CN1CCC(=C2c3ccccc3CC(=O)c3sccc32)CC1.O=C(O)/C=C/C(=O)O [KETOTIFEN FUMARATE]
[1]
  Bacterial Biotransformation: Compound NOT metabolized
[2]
  Bacterial Biotransformation: Compound NOT metabolized
[3]
  Bacterial Biotransformation: Compound NOT metabolized
[4]
  Bacterial Biotransformation: Compound NOT metabolized
[5]
  Bacterial Biotransformation: Compound NOT metabolized
[6]
  Bacterial Biotransformation: Compound NOT metabolized
[7]
  Bacterial Biotransformation: Compound NOT metabolized
[8]
  Bacterial Biotransformation: Compound NOT metabolized
[9]
  Bacterial Biotransformation: Compound NOT metabolized
[10]
  Bacterial Biotransformation: Compound NOT metabolized
[12]
  Bacterial Biotransformation: Compound NOT metabolized
[13]
  Bacterial Biotransformation: Compound NOT metabolized
[14]
  Bacterial Biotransformation: Compound NOT metabolized
[15]
  Bacterial Biotransformation: Compound NOT metabolized
[16]
  Bacterial Biotransformation: Compound NOT metabolized
[17]
  Bacterial Biotransformation: Compound NOT metabolized
[18]
  Bacterial Biotransformation: Compound NOT metabolized
[19]
  Bacterial Biotransformation: Compound NOT metabolized

## C=CCN1CC[C@]23c4c5ccc(O)c4O[C@H]2C(=O)CC[C@@]3(O)[C@H]1C5 [NALOXONE]
[1]
  Bacterial Biotransformation: Compound metabolized
[2]
  Bacterial Biotransformation: Compound NOT metabolized
[3]
  Bacterial Biotransformation: Compound NOT metabolized
[5]
  Bacterial Biotransformation: Compound metabolized
[6]
  Bacterial Biotransformation: Compound metabolized
[7]
  Bacterial Biotransformation: Compound NOT metabolized
[8]
  Bacterial Biotransformation: Compound metabolized
[9]
  Bacterial Biotransformation: Compound NOT metabolized
[11]
  Bacterial Biotransformation: Compound NOT metabolized
[12]
  Bacterial Biotransformation: Compound metabolized
[13]
  Bacterial Biotransformation: Compound NOT metabolized
[15]
  Bacterial Biotransformation: Compound NOT metabolized
[18]
  Bacterial Biotransformation: Compound NOT metabolized
[19]
  Bacterial Biotransformation: Compound NOT metabolized

## Cc1ccnc2c1NC(=O)c1cccnc1N2C1CC1 [NEVIRAPINE]
[1]
  Bacterial Biotransformation: Compound metabolized
[2]
  Bacterial Biotransformation: Compound NOT metabolized
[20]
  Bacterial Biotransformation: Compound NOT metabolized
[3]
  Bacterial Biotransformation: Compound NOT metabolized
[4]
  Bacterial Biotransformation: Compound NOT metabolized
[5]
  Bacterial Biotransformation: Compound NOT metabolized
[6]
  Bacterial Biotransformation: Compound NOT metabolized
[8]
  Bacterial Biotransformation: Compound NOT metabolized
[9]
  Bacterial Biotransformation: Compound NOT metabolized
[10]
  Bacterial Biotransformation: Compound NOT metabolized
[11]
  Bacterial Biotransformation: Compound NOT metabolized
[12]
  Bacterial Biotransformation: Compound NOT metabolized
[13]
  Bacterial Biotransformation: Compound NOT metabolized
[14]
  Bacterial Biotransformation: Compound NOT metabolized
[15]
  Bacterial Biotransformation: Compound NOT metabolized
[16]
  Bacterial Biotransformation: Compound NOT metabolized
[17]
  Bacterial Biotransformation: Compound NOT metabolized
[18]
  Bacterial Biotransformation: Compound NOT metabolized
[19]
  Bacterial Biotransformation: Compound NOT metabolized

## CN(C(=O)CN(CCO)CC(=O)N(C)C(C)(C)Cc1ccccc1)C(C)(C)Cc1ccccc1 [OXETHAZAINE]
[1]
  Bacterial Biotransformation: Compound NOT metabolized
[2]
  Bacterial Biotransformation: Compound NOT metabolized
[3]
  Bacterial Biotransformation: Compound NOT metabolized
[4]
  Bacterial Biotransformation: Compound NOT metabolized
[5]
  Bacterial Biotransformation: Compound NOT metabolized
[6]
  Bacterial Biotransformation: Compound NOT metabolized
[7]
  Bacterial Biotransformation: Compound NOT metabolized
[8]
  Bacterial Biotransformation: Compound NOT metabolized
[9]
  Bacterial Biotransformation: Compound NOT metabolized
[10]
  Bacterial Biotransformation: Compound NOT metabolized
[12]
  Bacterial Biotransformation: Compound NOT metabolized
[13]
  Bacterial Biotransformation: Compound NOT metabolized
[14]
  Bacterial Biotransformation: Compound NOT metabolized
[15]
  Bacterial Biotransformation: Compound NOT metabolized
[16]
  Bacterial Biotransformation: Compound NOT metabolized
[17]
  Bacterial Biotransformation: Compound NOT metabolized
[18]
  Bacterial Biotransformation: Compound NOT metabolized
[19]
  Bacterial Biotransformation: Compound NOT metabolized
